What was measured:
[1] = system: human colon cancer xenografts; details: cited from earlier work
[2] = Moisture sorption/desorption on VTI SGA-100 moisture balance; type: physicochemical; details: for hygroscopicity: judged from sorption 5 to 95% RH
Description: The samples were not dried prior to analysis.

[3] = Storage in closed vial at ambient conditions, XRPD comparison; type: physicochemical; details: 31 days
[4] = Dehydration/desolvation under vacuum, XRPD comparison; type: physicochemical
Description: The characterization of this weight loss as THF solvent is supported by the ^1H NMR data.

[5] = solubilized by sodium hydroxide in water; cited from earlier work

For `CC[C@@]1(O)C(=O)OCc2c1cc1n(c2=O)Cc2cc3cc4c(cc3nc2-1)OCO4` [10,11, MD, 10,11-methylendioxy-20(S)-camptothecin], the anticancer activity [1] is given as “high anticancer activity”.

For `CC[C@@]1(O)C(=O)OCc2c1cc1n(c2=O)Cc2cc3c(N)cccc3nc2-1` [Form 9AC, 9-Amino-20(S)-Camptothecin], the anticancer activity [1] is listed as “high anticancer activity”.

For `CC[C@@]1(O)C(=O)OCc2c1cc1n(c2=O)Cc2cc3c([N+](=O)[O-])cccc3nc2-1` [Form A, 9-nitrocamptothecin], the “total weight gained in the region from 5 to 95% RH” value ([2]; 5 to 95% RH) was “about 0.03%”, the Weight % chg ([2]; desorption, RH 4.83 %, 25.03 deg C, elapsed 157.3 min) was 0.0275% and the Weight % chg ([2]; desorption, RH 15.00 %, 25.03 deg C, elapsed 150.3 min) was 0.0307%. The Weight % chg ([2]; desorption, RH 24.95 %, 25.02 deg C, elapsed 143.3 min) was 0.0324%, the Weight % chg ([2]; desorption, RH 34.97 %, 25.02 deg C, elapsed 135.8 min) was 0.0348% and the Weight % chg ([2]; desorption, RH 45.05 %, 25.02 deg C, elapsed 127.8 min) was 0.0372%. It also gave a Weight % chg ([2]; desorption, RH 54.99 %, 25.02 deg C, elapsed 119.8 min) of 0.0381%, a Weight % chg ([2]; desorption, RH 65.02 %, 25.02 deg C, elapsed 111.8 min) of 0.0405% and a Weight % chg ([2]; desorption, RH 75.18 %, 25.03 deg C, elapsed 103.8 min) of 0.0429%. The Weight % chg ([2]; desorption, RH 84.95 %, 25.03 deg C, elapsed 94.8 min) was 0.0429%, the “water gained upon equilibration to 5% RH” value ([2]; equilibration to 5% RH) was 0.01% and the hygroscopicity [2] was “not hygroscopic”. For the same compound, the Weight % chg ([2]; sorption, RH 5.16 %, 25.02 deg C, elapsed 11.1 min) was 0.0131%, the Weight % chg ([2]; sorption, RH 15.27 %, 25.02 deg C, elapsed 19.6 min) was 0.0149% and the Weight % chg ([2]; sorption, RH 24.98 %, 25.03 deg C, elapsed 27.2 min) was 0.0169%. It also gave a Weight % chg ([2]; sorption, RH 35.07 %, 25.03 deg C, elapsed 34.7 min) of 0.0210%, a Weight % chg ([2]; sorption, RH 45.07 %, 25.03 deg C, elapsed 42.2 min) of 0.0242% and a Weight % chg ([2]; sorption, RH 55.00 %, 25.03 deg C, elapsed 50.2 min) of 0.0283%. It also gave a Weight % chg ([2]; sorption, RH 64.96 %, 25.03 deg C, elapsed 59.2 min) of 0.0315%, a Weight % chg ([2]; sorption, RH 74.75 %, 25.03 deg C, elapsed 68.3 min) of 0.0347% and a Weight % chg ([2]; sorption, RH 84.64 %, 25.03 deg C, elapsed 77.3 min) of 0.0387%. The Weight % chg ([2]; sorption, RH 94.90 %, 25.03 deg C, elapsed 86.3 min) was 0.0421% and the Weight % chg ([2]; start, RH 14.41 %, 24.99 deg C, elapsed 0.0 min) was 0.0000%.

For `CC[C@@]1(O)C(=O)OCc2c1cc1n(c2=O)Cc2cc3c([N+](=O)[O-])cccc3nc2-1` [Form B, 9-nitrocamptothecin], the hygroscopicity [2] was “relatively hygroscopic”, the Weight % chg ([2]; start, RH 9.87 %, 25.03 deg C, elapsed 0.0 min) was 0.0000% and the “stability of crystalline form on storage (XRPD pattern unchanged)” value [3] was “relatively stable”.

For `CC[C@@]1(O)C(=O)OCc2c1cc1n(c2=O)Cc2cc3c([N+](=O)[O-])cccc3nc2-1` [Form C, 9-nitrocamptothecin], the “form change on attempted desolvation” value [4] was “becomes amorphous”.

For `CC[C@@](O)(C(=O)[O-])c1cc2n(c(=O)c1CO)Cc1cc3ccccc3nc1-2.[Na+]` [Sodium camptothecin], the “antineoplastic activity in clinical trials” value [5] is given as “antineoplastic activity”.

Reference: US6696458B2 (Super Gen, Inc., priority 2002, dated 2004)
